{
  "source": "patent US12263143B2",
  "about": "“Ionic channel modulation as a method for treating tumors through inflammasome activation” (priority 2019, dated 2025)",
  "key": {"[1]": {"tested_on": "two tumor types", "settings": "anti-PD-1 resistant mice, WO2018203262A1; cited from earlier work"}, "[2]": {"tested_on": "inflammasome (NLRP3)", "settings": "prior application WO2018203262A1; cited from earlier work"}, "[3]": {"target": "TORID (Homo sapiens, UniProt Q3YBM2)", "sequence (Q3YBM2 whole entry)": "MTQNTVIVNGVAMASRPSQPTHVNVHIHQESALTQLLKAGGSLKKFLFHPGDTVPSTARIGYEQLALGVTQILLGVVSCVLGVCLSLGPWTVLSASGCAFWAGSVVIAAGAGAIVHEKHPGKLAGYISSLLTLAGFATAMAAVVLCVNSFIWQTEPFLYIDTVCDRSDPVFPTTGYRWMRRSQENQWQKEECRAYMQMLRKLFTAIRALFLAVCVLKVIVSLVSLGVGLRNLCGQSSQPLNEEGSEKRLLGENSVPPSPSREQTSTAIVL", "settings": "prior application WO2018203262A1; cited from earlier work"}, "[4]": {"tested_on": "Tmem176b (TORID-1) and Tmem176a (TORID-2)", "assay": "TORID-dependent ion flux, ANG-2 Na+-sensitive dye MFI in transfected CHO-7 cells", "assay_type": "cell-based", "settings": "CHO-7 cells transfected with Tmem176b and Tmem176a-mcherry pSecTag2B plasmids, vs untreated cells", "description": "(§1) Triggering inflammasome activation: Mouse bone marrow-derived dendritic cells (BMDCs) are treated with LPS and ATP to trigger NLRP3 inflammasome activation in the presence of vehicle control (DMSO) or the indicated ion channels modulators. IL-1β is measured in the culture supernatant by ELISA. • [IL-1β was used to measure the degree of inflammasome activation] • b. Inhibiting TORID-dependent ion flux: CHO-7 cells were transfected with TORID-1 and TORID-2 plasmids. Cells were then loaded with the Na^+-sensitive fluorescent dye-ANG-2-. ANG-2 mean fluorescence intensity (MFI) subtracting in each condition the MFI obtained in Na+-free buffer substituted with NMDG+ is shown. Cells left untreated or treated with the indicated drugs were studied • [MFI was used to measure the degree of inhibition of TORID-dependent ion flux.\n(§2) IL-1β was measured in the culture supernatant by ELISA. • B CHO-7 cells were transfected with Tmem176b (TORID-1) and Tmem176a (TORID-2)-mcherry-coding pSecTag2B plasmids. Cells were then loaded with the Na^+-sensitive fluorescent dye Asante NaTRIUM Green 2 (ANG-2). ANG-2 mean fluorescence intensity (MFI) subtracting in each condition the MFI obtained in Na^+-free buffer substituted with NMDG^+ is shown. Cells left untreated or treated with the indicated drugs were studied."}, "[5]": {"tested_on": "NLRP3 inflammasome", "assay": "NLRP3 inflammasome activation in LPS/ATP-treated BMDCs, IL-1β in culture supernatant by ELISA", "assay_type": "cell-based", "settings": "mouse BMDCs, LPS 0.25 μg/ml for 3 hr and ATP 0.5 mM, vs vehicle control (DMSO)", "description": "as §1, §2"}},
  "data": [
    {"compound": "COC(=O)C1=C(C)NC(C)=C([N+](=O)[O-])C1c1ccccc1C(F)(F)F", "note": "(single isomer, unassigned; (+)) [(+)BAY K8644, Methyl 2,6-dimethyl-5-nitro-4-[2-(trifluoromethyl)phenyl]-1,4-dihydropyridine-3-carboxylate]", "values": [
      {"measurement": "rate of survival", "setting": "[1]", "result": "higher rate of survival"},
      {"measurement": "inflammasome (NLRP3) expression", "setting": "[2]", "result": "increased inflammasome (NLRP3) expression"},
      {"measurement": "TORID activity", "setting": "[3]", "result": "inhibited TORID activity"}
    ]},
    {"compound": "CCN1C[C@]2(COC)[C@H](O)C[C@H](OC)[C@@]34[C@@H]5C[C@@]6(O)[C@H](OC(=O)c7ccccc7)[C@@H]5[C@@](OC(C)=O)([C@@H]([C@H](OC)[C@H]23)[C@@H]14)[C@@H](O)[C@@H]6OC", "note": "[Aconitine]", "values": [
      {"measurement": "TORID activity (ANG-2 MFI, Na+-free NMDG+ buffer MFI subtracted)", "setting": "[4]", "result": "inhibit TORID activity"},
      {"measurement": "NLRP3 inflammasome activation (IL-1β in culture supernatant by ELISA)", "setting": "[5]", "result": "enhance NLRP3 inflammasome activation"}
    ]},
    {"compound": "CCN(CC)CC(=O)Nc1c(C)cccc1C", "note": "[Lidocaine]", "values": [
      {"measurement": "TORID activity (ANG-2 MFI, Na+-free NMDG+ buffer MFI subtracted)", "setting": "[4]", "result": "inhibit TORID activity"},
      {"measurement": "NLRP3 inflammasome activation (IL-1β in culture supernatant by ELISA)", "setting": "[5]", "result": "enhance NLRP3 inflammasome activation"}
    ]},
    {"compound": "CCN(CC)CCNC(=O)c1ccc(N)cc1", "note": "[Procainamide]", "values": [
      {"measurement": "TORID activity (ANG-2 MFI, Na+-free NMDG+ buffer MFI subtracted)", "setting": "[4]", "result": "inhibit TORID activity"},
      {"measurement": "NLRP3 inflammasome activation (IL-1β in culture supernatant by ELISA)", "setting": "[5]", "result": "enhance NLRP3 inflammasome activation"}
    ]}
  ]
}
